ChEMBL document CHEMBL5465560, “Selectivity Literature for EUbOPEN Chemogenomic Library” (2024)
Each block holds one molecule with its values, some of them ahead of it.

Key:
[1] = target: T1, Serine/threonine-protein kinase DCLK3 (Homo sapiens) (UniProt Q9C098); conditions: at 10 µM
T1 sequence (whole entry): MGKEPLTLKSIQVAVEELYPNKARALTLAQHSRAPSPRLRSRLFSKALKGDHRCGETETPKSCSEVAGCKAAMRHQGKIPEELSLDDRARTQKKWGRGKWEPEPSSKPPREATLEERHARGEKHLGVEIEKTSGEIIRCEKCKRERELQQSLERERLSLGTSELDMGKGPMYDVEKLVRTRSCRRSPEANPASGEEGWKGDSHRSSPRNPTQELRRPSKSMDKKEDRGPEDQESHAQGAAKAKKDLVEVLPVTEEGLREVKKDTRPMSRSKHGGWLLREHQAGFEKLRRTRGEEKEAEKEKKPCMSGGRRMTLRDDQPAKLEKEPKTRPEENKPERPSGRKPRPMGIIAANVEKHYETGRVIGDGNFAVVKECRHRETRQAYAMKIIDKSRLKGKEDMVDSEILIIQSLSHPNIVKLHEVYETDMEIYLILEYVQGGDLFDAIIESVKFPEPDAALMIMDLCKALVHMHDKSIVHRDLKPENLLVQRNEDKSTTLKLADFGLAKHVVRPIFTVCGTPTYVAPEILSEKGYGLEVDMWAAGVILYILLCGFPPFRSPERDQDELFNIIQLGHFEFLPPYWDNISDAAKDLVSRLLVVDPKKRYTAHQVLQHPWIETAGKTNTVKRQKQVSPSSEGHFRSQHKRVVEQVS

[2] = target: Protein-tyrosine kinase 2-beta (Homo sapiens) (UniProt Q14289); conditions: at 10 µM
[3] = system: Proto-oncogene tyrosine-protein kinase receptor Ret (Homo sapiens), P07949 [V804L]; conditions: at 10 µM
[4] = target: Serine/threonine-protein kinase MARK1 (Homo sapiens) (UniProt Q9P0L2); assay: Selectivity interaction (KinomeScan (DiscoverX)) EUB0001049a MARK1; conditions: at 1 µM
[5] = system: Mast/stem cell growth factor receptor Kit (Homo sapiens), P10721 [D816V]; assay: (§1) Selectivity interaction (LanthaScreen Eu Kinase Binding Assay) EUB0001632a KIT; conditions: at 10 µM
Sequence of Mast/stem cell growth factor receptor Kit (Homo sapiens), P10721 [D816V] (P10721 whole entry D816V): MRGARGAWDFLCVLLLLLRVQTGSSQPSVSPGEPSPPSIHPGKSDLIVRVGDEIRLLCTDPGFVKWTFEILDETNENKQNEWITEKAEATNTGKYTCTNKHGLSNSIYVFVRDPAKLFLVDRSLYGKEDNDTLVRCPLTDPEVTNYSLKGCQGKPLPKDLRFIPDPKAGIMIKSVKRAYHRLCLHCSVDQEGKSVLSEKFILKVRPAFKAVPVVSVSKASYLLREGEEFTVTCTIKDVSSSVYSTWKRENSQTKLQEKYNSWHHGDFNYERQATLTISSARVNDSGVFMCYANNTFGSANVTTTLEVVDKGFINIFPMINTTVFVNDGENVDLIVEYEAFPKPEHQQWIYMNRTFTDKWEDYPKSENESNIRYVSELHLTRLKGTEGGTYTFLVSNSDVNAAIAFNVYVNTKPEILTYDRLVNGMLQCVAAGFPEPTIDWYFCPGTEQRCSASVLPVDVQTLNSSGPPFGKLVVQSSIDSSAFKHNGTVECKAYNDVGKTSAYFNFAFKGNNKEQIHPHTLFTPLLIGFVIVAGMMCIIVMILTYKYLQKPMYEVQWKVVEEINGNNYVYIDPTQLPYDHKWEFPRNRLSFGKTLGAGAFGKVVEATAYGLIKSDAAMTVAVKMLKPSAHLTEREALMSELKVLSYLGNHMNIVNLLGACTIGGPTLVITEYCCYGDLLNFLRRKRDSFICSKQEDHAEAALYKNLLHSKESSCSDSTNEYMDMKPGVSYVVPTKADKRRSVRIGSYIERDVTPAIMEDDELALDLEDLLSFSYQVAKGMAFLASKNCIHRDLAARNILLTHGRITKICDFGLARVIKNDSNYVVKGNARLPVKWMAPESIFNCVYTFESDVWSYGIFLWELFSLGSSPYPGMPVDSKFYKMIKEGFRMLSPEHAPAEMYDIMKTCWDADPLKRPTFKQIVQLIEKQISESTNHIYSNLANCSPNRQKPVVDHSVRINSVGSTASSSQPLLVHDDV

[6] = system: Mast/stem cell growth factor receptor Kit (Homo sapiens), P10721 [T670E]; assay: as §1; conditions: at 10 µM
Sequence of Mast/stem cell growth factor receptor Kit (Homo sapiens), P10721 [T670E] (P10721 whole entry T670E): as the sequence (P10721 whole entry D816V) above, with T670E, V816D counted along it

[7] = system: Mast/stem cell growth factor receptor Kit (Homo sapiens), P10721 [D820E]; assay: as §1; conditions: at 10 µM
[8] = system: Mast/stem cell growth factor receptor Kit (Homo sapiens), P10721 [N822K]; assay: as §1; conditions: at 10 µM
[9] = system: Mast/stem cell growth factor receptor Kit (Homo sapiens), P10721 [D816H]; assay: as §1; conditions: at 10 µM
[10] = system: Mast/stem cell growth factor receptor Kit (Homo sapiens), P10721 [V654A]; assay: as §1; conditions: at 10 µM
[11] = system: Mast/stem cell growth factor receptor Kit (Homo sapiens), P10721 [Y823D]; assay: as §1; conditions: at 10 µM
Sequence of Mast/stem cell growth factor receptor Kit (Homo sapiens), P10721 [Y823D] (P10721 whole entry Y823D): as the sequence (P10721 whole entry D816V) above, with V816D, Y823D counted along it

[12] = system: Mast/stem cell growth factor receptor Kit (Homo sapiens), P10721 [V559D,T670I]; assay: as §1; conditions: at 10 µM
[13] = system: Mast/stem cell growth factor receptor Kit (Homo sapiens), P10721 [A829P]; assay: as §1; conditions: at 10 µM
Sequence of Mast/stem cell growth factor receptor Kit (Homo sapiens), P10721 [A829P] (P10721 whole entry A829P): as the sequence (P10721 whole entry D816V) above, with V816D, A829P counted along it

[14] = target: 5-hydroxytryptamine receptor 2B (Homo sapiens, UniProt P41595); assay: Selectivity interaction (GPCR panel (PDSP screen)) EUB0001079a HTR2B; conditions: at 10 µM
[15] = system: Epidermal growth factor receptor (Homo sapiens), P00533 [UNDEFINED MUTATION]; assay: Selectivity interaction (ProQinase) EUB0000171b EGFR; conditions: at 1 µM
[16] = target: Maternal embryonic leucine zipper kinase (Homo sapiens) (UniProt Q14680); assay: Selectivity interaction (KinomeScan (DiscoverX)) EUB0000092b MELK; conditions: at 10 µM
[17] = target: Dual specificity protein kinase CLK3 (Homo sapiens, UniProt P49761); assay: Selectivity interaction (KinomeScan (DiscoverX)) EUB0000045b CLK3
Sequence of Dual specificity protein kinase CLK3 (P49761 whole entry, looked up): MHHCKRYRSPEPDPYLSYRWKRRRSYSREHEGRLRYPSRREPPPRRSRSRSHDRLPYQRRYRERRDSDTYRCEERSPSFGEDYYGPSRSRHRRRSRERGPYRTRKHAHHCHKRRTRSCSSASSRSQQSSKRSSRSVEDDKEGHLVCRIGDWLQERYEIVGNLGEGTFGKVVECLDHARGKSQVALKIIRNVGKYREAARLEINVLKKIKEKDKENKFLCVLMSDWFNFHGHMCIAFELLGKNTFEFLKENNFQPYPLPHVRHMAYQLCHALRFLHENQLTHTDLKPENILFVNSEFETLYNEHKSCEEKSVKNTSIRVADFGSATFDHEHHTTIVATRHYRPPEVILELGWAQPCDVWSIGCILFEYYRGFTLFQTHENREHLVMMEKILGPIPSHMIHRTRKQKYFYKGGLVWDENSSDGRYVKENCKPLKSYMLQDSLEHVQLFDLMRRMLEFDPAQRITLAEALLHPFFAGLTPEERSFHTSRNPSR

[18] = target: T2, cGMP-dependent protein kinase 1 (Homo sapiens) (UniProt Q13976); assay: Selectivity interaction (KinomeScan (DiscoverX)) EUB0001619a PRKG1; conditions: at 1 µM
T2 sequence (whole entry): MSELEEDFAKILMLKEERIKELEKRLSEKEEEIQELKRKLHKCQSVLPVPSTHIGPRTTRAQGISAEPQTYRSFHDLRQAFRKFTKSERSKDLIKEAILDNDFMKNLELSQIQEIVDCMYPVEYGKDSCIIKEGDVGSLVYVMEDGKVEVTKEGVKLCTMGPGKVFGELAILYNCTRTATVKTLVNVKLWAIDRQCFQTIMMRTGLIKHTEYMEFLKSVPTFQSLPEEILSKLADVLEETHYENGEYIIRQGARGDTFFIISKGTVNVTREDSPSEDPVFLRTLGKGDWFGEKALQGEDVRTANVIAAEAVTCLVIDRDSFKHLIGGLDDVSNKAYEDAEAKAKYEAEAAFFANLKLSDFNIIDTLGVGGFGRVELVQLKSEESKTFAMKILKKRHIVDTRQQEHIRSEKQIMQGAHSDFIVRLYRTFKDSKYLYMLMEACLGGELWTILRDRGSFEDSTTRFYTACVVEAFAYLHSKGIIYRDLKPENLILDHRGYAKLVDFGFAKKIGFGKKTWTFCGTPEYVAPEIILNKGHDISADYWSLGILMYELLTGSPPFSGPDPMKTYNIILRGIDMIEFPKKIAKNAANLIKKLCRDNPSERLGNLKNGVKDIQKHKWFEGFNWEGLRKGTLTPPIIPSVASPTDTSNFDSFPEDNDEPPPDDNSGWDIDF

[19] = target: Vascular endothelial growth factor receptor 2 (Homo sapiens, UniProt P35968); assay: Selectivity interaction (KinomeScan (DiscoverX)) EUB0001619a KDR; conditions: at 1 µM
[20] = target: ALK tyrosine kinase receptor (Homo sapiens, UniProt Q9UM73); assay: Selectivity interaction (KinomeScan (DiscoverX)) EUB0000618a ALK; conditions: at 10 µM
[21] = target: Tyrosine-protein kinase receptor UFO (Homo sapiens) (UniProt P30530); assay: Selectivity interaction (SelectScreen profiling (Invitrogen)) EUB0000607a AXL; conditions: at 2 µM
[22] = target: Serine/threonine-protein kinase PAK 3 (Homo sapiens) (UniProt O75914); assay: Selectivity interaction (SelectScreen profiling (Invitrogen)) EUB0000607a PAK3; conditions: at 2 µM
[23] = target: Serine/threonine-protein kinase 26 (Homo sapiens, UniProt Q9P289); assay: Selectivity interaction (SelectScreen profiling (Invitrogen)) EUB0000607a STK26; conditions: at 2 µM
Sequence of Serine/threonine-protein kinase 26 (Q9P289 2-416 limits assumed): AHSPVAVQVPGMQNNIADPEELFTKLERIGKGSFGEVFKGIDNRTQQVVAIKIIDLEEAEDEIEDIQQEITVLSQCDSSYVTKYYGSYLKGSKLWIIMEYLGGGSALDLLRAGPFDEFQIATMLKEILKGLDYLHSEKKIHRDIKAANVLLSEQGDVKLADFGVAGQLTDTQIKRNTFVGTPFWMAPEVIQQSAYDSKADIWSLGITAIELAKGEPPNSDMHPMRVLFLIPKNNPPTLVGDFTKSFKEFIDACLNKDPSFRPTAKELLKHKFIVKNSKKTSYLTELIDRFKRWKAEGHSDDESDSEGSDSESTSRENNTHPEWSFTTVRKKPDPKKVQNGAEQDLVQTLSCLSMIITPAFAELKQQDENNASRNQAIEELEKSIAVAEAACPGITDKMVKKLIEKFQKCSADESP

[24] = system: Phosphatidylinositol 4,5-bisphosphate 3-kinase catalytic subunit alpha isoform (Homo sapiens), P42336 [M1043I]; conditions: at 10 µM
[25] = target: Mitogen-activated protein kinase kinase kinase 21 (Homo sapiens) (UniProt Q5TCX8); assay: Selectivity interaction (Kinase panel (KiNativ target engagement assay in Jurkat cells)) EUB0001635a MAP3K21; format: cell-based; conditions: Selectivity number of off-targets 0.0, Selectivity number of targets 233.0, Source Knowledge https://www.sciencedirect.com/science/article/pii/S2451945619300674?via%3Dihub, at 1 µM

SMILES: Cc1cc([C@@H](C)Nc2ccccc2C(=O)O)c2nc(N3CCOCC3)cc(=O)n2c1 [AZD-6482]
% of control [1]: 85%
% of control [2]: 100%
% of control [3]: 99%

SMILES: COc1cc(Nc2nc(C)cc(-c3cnn4nc(OC)ccc34)n2)cc(C(F)(F)F)c1
% of control [4]: 98%

% of inhibition [5]: -20.9%
% of inhibition [6]: -20.6%
% of inhibition [7]: -6.81%
% of inhibition [8]: -18.2%
% of inhibition [9]: 9.61%
% of inhibition [10]: -40.6%
% of inhibition [11]: -40.5%
% of inhibition [12]: 1.44%
% of inhibition [13]: -25.5%
SMILES: Cn1cc(-n2cnc3c(NCc4nc5cc(Cl)c(Cl)cc5[nH]4)nc(N4CCOCC4)nc32)cn1

SMILES: Nc1cnc(N2CCc3cc(S(=O)(=O)Nc4c(F)cc(Cl)cc4F)cc(N4CCCC4=O)c32)nc1 [TP-020n]
% of inhibition [14]: 12.9%

% of control [15]: 85%
SMILES: C=CC(=O)Nc1cccc(C(=O)Nc2ccc(Nc3cc(-c4[nH]c(SC)nc4C)ccn3)cc2)c1

SMILES: CCC(=O)N1CCN(c2ccc(-n3c(=O)ccc4cnc5ccc(-c6cnc7ccccc7c6)cc5c43)cc2C(F)(F)F)CC1
% of control [16]: 50%

SMILES: C=CC(=O)Nc1cc(-n2c(=O)ccc3cnc4ccc(-c5ccc(NS(C)(=O)=O)cc5)cc4c32)ccc1C
% of control ([17]; at 1 µM): 100%
% of control ([17]; at 10 µM): 98%

SMILES: N#Cc1cccc(-c2c[nH]c3ncnc(N4CCOCC4)c23)c1
% of control [18]: 99%
% of control [19]: 62%

SMILES: O[C@H]1CC[C@H](Nc2ncc3nc(Nc4c(F)cc(F)cc4F)n([C@H]4CCOC4)c3n2)CC1
% of control [20]: 100%

SMILES: CNC(=O)Nc1ccc(-c2nc(N3CC4CCC(C3)O4)c3cnn(C4CCC5(CC4)OCCO5)c3n2)cc1
% of inhibition [21]: 2%
% of inhibition [22]: 1%
% of inhibition [23]: 7%
% of control [24]: 4.4%

SMILES: C=CC(=O)Nc1ccc(C(=O)Nc2[nH]nc3c2CN(C(=O)N[C@H](CN(C)C)c2ccccc2)C3(C)C)cc1
% of engagement [25]: -4.1%
